From US8148392B2, “2-indolyl imidazo [4,5-d] phenanthroline derivatives and their use in the treatment of cancer” (Lorus Therapeutics Inc., priority 2005, dated 2012)
Like-named read-outs stand apart in the source and are kept apart here.

Experiments:
[1] = system: panel of 60 human cancer cell lines; test: NCI DTP in vitro anticancer screen, panel of 60 human cancer cell lines; type: cell-based
Description: For example, the following methodology, which is currently employed by the NCI, can be used to assess the GI50 of a candidate compound of Formula I in the selected cancer cell lines. Briefly, cell suspensions are diluted (5000-40,000 cells per well) and 100 μL of the diluted cell suspension is added into 96-well microtiter plates. Inoculates are allowed a preincubation period of 24 h at 37° C. for stabilization. Dilutions at twice the intended test concentration of the candidate compound are added at time zero in 100 μL aliquots to the microtiter plate wells. Test compounds are generally evaluated at five 10-fold dilutions. In routine testing, the highest well concentration is usually 10E-4 M, but this may be adjusted depending on the compound being tested. The cells are incubated with the test compound for 48 h in 5% CO2 atmosphere and 100% humidity. The cells are then assayed by using the sulforhodamine B assay (see, for example, Skehan, P., et al. (1990) JNCI, J. Natl. Cancer Inst. 82, 1107-1112; and Chen, S. F., et al. (1990) Proc. Am. Assoc. Cancer Res. 31, A2644) employing a plate reader which can be used to read the optical densities.
Compounds 2 and 3 were evaluated for their antiproliferative effects in a panel of 60 human cancer cell lines as part of the in vitro anticancer screening services provided by the DTP (Developmental Therapeutics Program) of the US National Cancer Institute (NCI).
Analysis of the effects of compounds of Formula I on in vitro and in vivo cell growth inhibition were performed utilizing the methods as described in the preceding Examples. As shown in Example 12, cell growth inhibition by the parental compound 3 was screened by National Cancer Institute 60-cell line assay and leukemia, non-small cell cancer, colon cancer, renal cancer and prostate cancer panels were especially sensitive to compound 3.

[2] = system: human colon adenocarcinoma cells HT-29; test: Colon carcinoma HT-29 xenograft model, tumour growth; type: in vivo, CD-1 female nude mice
Description: The ability of compound 3 to inhibit colon tumour growth in vivo was tested as follows. CD-1 female nude mice (7 mice per treatment group, 6-7 weeks) were injected intraperitoneally with human colon adenocarcinoma cells HT-29 cells (3×10^6 cells in 0.1 ml PBS). Treatment of the mice with vehicle or 50 mg/kg/d of compound 3 was initiated 5 days post-inoculation (size of tumours=20-40 mm^3) for 7-day cycles of five days followed by a 2 day break for 5 weeks. The size of the tumours was measured over the course of the experiment using calipers, and the weight of the tumours was measured after the animals were sacrificed.
The ability of compounds 3, 5, and 7 to inhibit colon carcinoma cell growth in vivo was tested in the mouse xenograft model as described in Example 26. […]
The tumor regression efficacy of compound 3 was assessed in compound 3-treated HT-29-transplanted athymic mice (FIG. 54A), and correlated with gene expressions of MTF-1, KLF4 and Cyclin D1 in HT-29 xenograft tissues (FIG. 54B). […] The tumor size was measured during the course of treatment using calipers (FIG. 54A). […] The tumor tissues were excised, frozen immediately and stored at −80° C. until RNA extraction and gene expression was analyzed by RT-PCR (FIG. 54B). […]

[3] = system: MTF-1; test: MTF-1 binding to Cyclin D1 promoter, ChIP, HT-29; type: cell-based, human; details: HT-29, 16 hr, versus basal level
Description: To examine decreased MTF-1 binding to the promoter region of the MTF-1-targeted gene, cell-cycle regulatory gene Cyclin D1, HT-29 cells were treated with compound 3 for 16 hr and MTF-1 binding to Cyclin D1 promoter was assessed by chromatin immuno-precipitation assay (ChIP) (Active Motif, Carlsbad, Calif.). At the end of 16 hr treatment with compound 3, the cells were fixed with 1% formaldehyde to cross-link transcriptions factors and their target chromatin. Chromatin complexes were sheared and MTF-1-bound chromatin was pulled down by using antibody to MTF-1 (Santacruz Biotechnology Inc.). Cross-linking was reversed and the MTF-1-associated DNA was amplified by polymerase chain reaction using the primers encompassing −231 to −92 region of Cyclin D1 promoter. The 5′ primer (5′-CGGACTACAGGGGCAA-3′) [SEQ ID NO:1] and the 3′ primer (5′-GCTCCAGGACTTTGCA-3′) [SEQ ID NO:2] were synthesized at Invitrogen.

[4] = system: HT-29 cells; test: HT-29 cell proliferation (XTT) after knock-down of KLF4 gene by siRNA; type: cell-based, human; details: HT-29, XTT
Description: Small interfering RNA (siRNA) transfection was performed as follows. Pre-designed MTF-1 siRNA (ID #115734) (Ambion, Austin, Tex.) was used to knockdown endogenous MTF-1 mRNA. Similarly, pre-designed KLF4 siRNA (ID #115492) (Ambion, Austin, Tex.) was used to knockdown endogenous KLF4 mRNA. A nonspecific, double-stranded RNA
was synthesized at Qiagen (Cambridge, Mass.) based on the sequence of an unrelated gene. HT-29 cells (3×10^5 cells in 35 mm-culture dishes) were transfected with indicated concentrations of siRNA or scrambled RNA control using Lipofectamine™ 2000 transfection reagent (Invitrogen) by following the manufacturer's instruction, for 6 hr. At the end of the incubation period, the transfection medium was supplemented with a complete growth medium and the cells were incubated at 37° C. for 24 hr before indicated experiments.

With Cc1[nH]c2ccccc2c1-c1nc2c3cccnc3c3ncccc3c2[nH]1 [Compound 3] the GI50 ([1]; Homo sapiens, NCI 60-cell line assay, read-out: average GI50 of all cell lines tested) was 0.62 µM, the GI50 ([1]; Homo sapiens, span of average values in the NCI panel (FIG. 2), read-out: GI50 average values) was 0.61 to 12.3 µM and the GI50 ([1]; average over human tumour cell lines of the NCI panel (FIG. 1), read-out: average GI50 (growth inhibition by 50%)) was < 2 µM. The “selectivity among cancer types of the NCI panel” value ([1]; in words) was “selective inhibitor of colon, leukemia, non-small cell lung cancer, and prostate cell lines”, the “tumour growth (size and weight)” value ([2]; 50 mg/kg/d, five days on 2 off, 5 weeks) was “able to inhibit tumour growth” and the tumor size ([2]; 100 mg/kg i.p., 5 days then 10 days interval, 2 cycles) was “Significant reduction in tumor size”. The “MTF-1 binding to Cyclin D1 promoter” value [3] was “Decreased MTF-1 binding to Cyclin D1 promoter” and the “cell growth inhibition after knock-down of KLF4 gene by siRNA” value [4] was “loss of compound 3-mediated cell growth inhibition”.
